Laboratory results taken from patent publication US9040035B2, “Treatment of pain using placental stem cells” (ANTHROGENESIS CORPORATION, priority 2011, dated 2015).

Legend:
[1] = system: motor sensory coordination; experiment: Sciatic nerve chronic constriction injury (CCI) in rats, Rotarod test; type: in vivo, rat; conditions: 100 mg/ml, 0.25 ml IP
Text: (§1) Seventy seven male Sprague Dawley rats, 3 months old, approximately 200-250 g at study initiation were included in the study. Minimum and maximum weights of the group were within a range of ±20% of group mean weight. Following several days of habituation the rats underwent baseline measurements for pain behavior (tactile-allodynia) and motor sensory assessment (rotarod test). All the rats underwent Sciatic nerve chronic constriction injury (CCI); pain development was verified on the 6th day following the operation and sensory motor behavior on the 7th. On the 8th day following the procedure the rats were assigned randomly to the various treatment groups (Table 5). Pain levels were assessed on the 6th, 10th, 16th, 25th and 30th days following the procedure. Motor sensory coordination was assessed on the 11th, 21st, 26th and 34th days. On the 35th day the rats were euthanized, the sciatic nerves (both sides) were collected and embedded in paraffin. […]
Motor sensory coordination was evaluated with the Rotarod Test. […] The rodent's ability to remain on the rotating rod is recorded (time in seconds). […]
(§2) Data were tabulated and analyzed using StatView software version 5.0 (SAS Institute Inc., San Francisco, Calif., USA). […] Behavioral statistics were calculated only for rats with data at all time points. […]

[2] = system: Sciatic nerve chronic constriction injury; experiment: Sciatic nerve chronic constriction injury (CCI) in rats, tactile allodynia test; type: in vivo, rat; conditions: 100 mg/ml, 0.25 ml IP; days 10, 16, 25 and 30
Text: as §1, with “days.” for “days. On the 35th day the rats were euthanized, the sciatic nerves (both sides) were collected and embedded in paraffin.”
Pain level was evaluated using a Tactile allodynia test. In this test, the withdrawal response to calibrated Von Frey fibers is measured. […] Each fiber was applied to the paw five times and a percentage score of responses was calculated (see Flatters et al., Pain, 2004, 109:150-161). […]
as §2

NCC1(CC(=O)O)CCCCC1 [gabapentin]
time spent on the rotarod (motor sensory coordination) [1]: significant reduction in the time spent on the rotarod
pain (responses to 26 g stimuli) compared to day 6 [2]: significantly reduced the pain
